Laboratory results from PMC12649549, “Sequence Permutation Generated Lysine and Tryptophan-Rich Antimicrobial Peptides with Enhanced Therapeutic Index” (Antibiotics, 2025).
Read-outs that look alike come from different tables or passages of the source.

Key:
[1] = tested on: Escherichia coli (ATCC 25922)
Experimental: (§1) The antibacterial and salt-resistant activity of the peptides was tested using Escherichia coli (ATCC 25922), Pseudomonas aeruginosa Migula (ATCC 27853), Acinetobacter sp. (BCRC number 14B0091, BCRC number 14B0097, and BCRC number 14B0100), and Staphylococcus aureus sp. strains (ATCC 25923, ATCC 33591, ATCC 33592, ATCC 33593, and ATCC 6538). All bacteria were obtained from the Food Industry Research and Development Institute (Hsinchu, Taiwan) and cultured in sterilized Müller-Hinton (MH) broth at 37 °C and 200 rpm for 8 h. The inoculum concentrations were determined by measuring the optical density at 600 nm (OD 600 = 1, approximately 10^8 CFU/mL) using an Ultrospec 2100 pro UV-Visible spectrophotometer (Biochrom Ltd., Cambridge, UK) after 8 h of culture.
(§2) The antibacterial activities of the peptides in Müller-Hinton (MH) broth and modified LYM broth were determined using the standard broth microdilution method as per Clinical and Laboratory Standards Institute (CLSI) guidelines. The LYM broth was prepared with specific components and adjusted to different conditions, including varying concentrations of NaCl and MgCl2, and different pH levels. To prepare the LYM broth, 5.4 mM KCl, 5.6 mM Na2HPO4, 0.5 mM MgSO4, and 1.0 mM sodium citrate were added. Additionally, 0.4 mg of ZnCl2, 2.0 mg of FeCl3·6H2O, 0.1 mg of CuSO4·5H2O, 0.1 mg of MnSO4·H2O, 0.1 mg of Na2B4O7∙10H2O, 700 mg of amino acid mixtures without tryptophan (Takara Bio Inc., San Jose, CA, USA), and 20 mg of L-tryptophan were added per liter of medium. The pH was adjusted to 7.4, and a vitamin mixture (100X, Sigma) and glucose concentration of 2% were added. For different conditions of LYM broth, NaCl concentrations of 300, 200, 150, and 50 mM, MgCl2 concentrations of 2.5, 1.5, and 0.5 mM, and pH levels of 6.5, 5.5, and 4.5 were adjusted. Bacterial strains were incubated in MH broth overnight, regrown, and diluted to a final concentration of 5 × 10^5 CFU/mL. Peptides were added to each well at final concentrations of 50, 25, 12.5, 6.25, 3.13, 1.56, and 0.78 µg/mL, and 99 µL of diluted microbes was loaded into each well of a polypropylene 96-well plate. […] The Morpheus HeatMap software (https://software.broadinstitute.org/morpheus/) was used to display MIC values on a color scale. All experiments were independently repeated three times.

[2] = tested on: S. aureus ATCC 33593
Experimental: as §1, §2

[3] = tested on: S. aureus ATCC 33592
Experimental: as §1
as §2, with “For different conditions of LYM broth, NaCl concentrations of 300, 200, 150, and 50 mM, MgCl2 concentrations of 2.5, 1.5, and 0.5 mM, and pH levels of 6.5, 5.5, and 4.5 were adjusted.” left out

[4] = tested on: Gram-negative bacteria; test: Geometric mean MIC and therapeutic index, Gram-negative bacteria; type: cell-based; details: Gram-negative bacteria; for GM G− (geometric mean of the MIC values): MH broth, MIC >50 µg/mL counted as 100 µg/mL; for Therapeutic Index (TI) G−: HC10/GM
Experimental: (§3) In this study, we aimed to investigate the potential of W5K series peptides for therapeutic use. To evaluate their efficacy for antibacterial therapy, we used the Therapeutic Index (TI) as a measure of their cell selectivity. The TI was calculated as the ratio of the concentration causing 10% hemolysis of human red blood cells (HC10) to the geometric mean minimum inhibitory concentration (GM) of the peptides against both Gram-negative and Gram-positive bacteria. This parameter was used to quantitatively assess the balance between antibacterial potency and cytotoxicity among the W5K derivatives.
as §2

[5] = tested on: Gram-positive bacteria; test: Geometric mean MIC and therapeutic index, Gram-positive bacteria; type: cell-based; details: Gram-positive bacteria; for GM G+ (geometric mean of the MIC values): MH broth, MIC >50 µg/mL counted as 100 µg/mL; for Therapeutic Index (TI) G+: HC10/GM
Experimental: as §3, §2

[6] = tested on: Both Gram-positive and -negative bacteria; test: Geometric mean MIC, therapeutic index and fold changes of MIC, whole panel of strains; type: cell-based; details: for GM G−/+ (geometric mean of the MIC values): Both Gram-positive and -negative bacteria, MIC >50 µg/mL counted as 100 µg/mL; for Therapeutic Index (TI) G−/+: HC10/GM, both Gram-positive and -negative bacteria
Experimental: as §3, §2

[7] = LYM broth, 0 mM NaCl, 16 h, 37 °C
[8] = LYM broth, 50 mM NaCl, 16 h, 37 °C
[9] = LYM broth, 100 mM NaCl, 16 h, 37 °C
[10] = LYM broth, 200 mM (NaCl), 16 h, 37 °C
[11] = LYM broth, 300 mM (NaCl), 16 h, 37 °C
[12] = MH broth, 5 × 10^5 CFU/mL, 16 h, 37 °C, repeated three times

Ac-KWLAKKKKWRKWL-NH2 [Peptide W5K07]
5.0: Therapeutic Index (TI) G− [4]
87.1 µg/mL: GM G+ (geometric mean of the MIC values) [5]
2.5: Therapeutic Index (TI) G−/+ [6]
21.8 µg/mL: GM G− (geometric mean of the MIC values) [4]
12.5 µg/mL: MIC [1, 7] | MIC ([1]; LYM broth, 0.5 mM MgCl2) | MIC ([1]; LYM broth, pH 4.5) | MIC ([2]; LYM broth, pH 5.5) | MIC ([2]; LYM broth, pH 6.5) | MIC ([3]; LYM broth, pH 6.5)
>50 µg/mL: MIC [1, 10] | MIC [1, 11] | MIC [2, 11] | MIC [2, 12] | MIC [3, 10] | MIC [3, 11] | MIC [3, 12]
1.2: Therapeutic Index (TI) G+ [5]
25 µg/mL: MIC ([1]; LYM broth, 1.5 mM MgCl2) | MIC ([1]; LYM broth, 2.5 mM MgCl2) | MIC [1, 8] | MIC [2, 7] | MIC ([2]; LYM broth, 0.5 mM MgCl2) | MIC ([2]; LYM broth, 1.5 mM MgCl2) | MIC ([2]; LYM broth, 2.5 mM MgCl2) | MIC [2, 8] | MIC ([2]; LYM broth, pH 4.5) | MIC [3, 7] | MIC ([3]; LYM broth, 0.5 mM MgCl2) | MIC ([3]; LYM broth, 1.5 mM MgCl2) | MIC ([3]; LYM broth, 2.5 mM MgCl2) | MIC [3, 8] | MIC ([3]; LYM broth, pH 4.5) | MIC ([3]; LYM broth, pH 5.5)
6.25 µg/mL: MIC ([1]; LYM broth, pH 5.5) | MIC ([1]; LYM broth, pH 6.5)
50 µg/mL: MIC [1, 9] | MIC [1, 12] | MIC [2, 9] | MIC [2, 10] | MIC [3, 9]
43.5 µg/mL: GM G−/+ (geometric mean of the MIC values) ([6]; MH broth)

Ac-KWLKWLAKKKKWR-NH2 [Peptide W5K04]
1.6: Therapeutic Index (TI) G+ [5]
25 µg/mL: MIC [1, 8] | MIC [1, 12] | MIC [2, 7] | MIC ([2]; LYM broth, 0.5 mM MgCl2) | MIC ([2]; LYM broth, 1.5 mM MgCl2) | MIC ([2]; LYM broth, 2.5 mM MgCl2) | MIC [2, 8] | MIC ([2]; LYM broth, pH 4.5) | MIC ([2]; LYM broth, pH 5.5) | MIC ([2]; LYM broth, pH 6.5) | MIC [3, 7] | MIC ([3]; LYM broth, 0.5 mM MgCl2) | MIC ([3]; LYM broth, 1.5 mM MgCl2) | MIC ([3]; LYM broth, 2.5 mM MgCl2) | MIC [3, 8] | MIC ([3]; LYM broth, pH 4.5) | MIC ([3]; LYM broth, pH 5.5)
50 µg/mL: MIC [1, 9] | MIC [2, 9] | MIC [3, 9]
35.4 µg/mL: GM G−/+ (geometric mean of the MIC values) ([6]; MH broth)
3.13 µg/mL: MIC ([1]; LYM broth, pH 5.5) | MIC ([1]; LYM broth, pH 6.5)
>50 µg/mL: MIC [1, 10] | MIC [1, 11] | MIC [2, 10] | MIC [2, 11] | MIC [2, 12] | MIC [3, 10] | MIC [3, 11] | MIC [3, 12]
6.25 µg/mL: MIC [1, 7] | MIC ([1]; LYM broth, pH 4.5)
18.9 µg/mL: GM G− (geometric mean of the MIC values) [4]
3.1: Therapeutic Index (TI) G−/+ [6]
66.0 µg/mL: GM G+ (geometric mean of the MIC values) [5]
12.5 µg/mL: MIC ([1]; LYM broth, 0.5 mM MgCl2) | MIC ([1]; LYM broth, 1.5 mM MgCl2) | MIC ([1]; LYM broth, 2.5 mM MgCl2) | MIC ([3]; LYM broth, pH 6.5)
5.7: Therapeutic Index (TI) G− [4]

Ac-KWRKWLKWLAKKK-NH2 [Peptide W5K01]
2–4 fold: folds higher MIC values than W5KA9W ([6]; MH broth, in most bacteria strains)
25 µg/mL: MIC [1, 9] | MIC [2, 10] | MIC [3, 10]
12.5 µg/mL: MIC ([1]; LYM broth, 2.5 mM MgCl2) | MIC [1, 12] | MIC [2, 9] | MIC ([3]; LYM broth, 2.5 mM MgCl2) | MIC [3, 9]
3.13 µg/mL: MIC [1, 7] | MIC ([1]; LYM broth, pH 4.5) | MIC ([1]; LYM broth, pH 5.5) | MIC ([1]; LYM broth, pH 6.5) | MIC ([2]; LYM broth, pH 5.5) | MIC ([2]; LYM broth, pH 6.5)
4.6: Therapeutic Index (TI) G−/+ [6]
50 µg/mL: MIC [2, 11] | MIC [2, 12] | MIC [3, 11] | MIC [3, 12]
8.6: Therapeutic Index (TI) G− [4]
28.7 µg/mL: GM G+ (geometric mean of the MIC values) [5]
8.2 µg/mL: GM G− (geometric mean of the MIC values) [4]
15.4 µg/mL: GM G−/+ (geometric mean of the MIC values) ([6]; MH broth)
2.5: Therapeutic Index (TI) G+ [5]
4 fold: weakening of bactericidal efficacy (MIC) ([6]; LYM broth, 2.5 mM MgCl2)
6.25 µg/mL: MIC ([1]; LYM broth, 0.5 mM MgCl2) | MIC ([1]; LYM broth, 1.5 mM MgCl2) | MIC [1, 8] | MIC [2, 7] | MIC ([2]; LYM broth, 0.5 mM MgCl2) | MIC ([2]; LYM broth, 1.5 mM MgCl2) | MIC ([2]; LYM broth, 2.5 mM MgCl2) | MIC [2, 8] | MIC ([2]; LYM broth, pH 4.5) | MIC [3, 7] | MIC ([3]; LYM broth, 0.5 mM MgCl2) | MIC ([3]; LYM broth, 1.5 mM MgCl2) | MIC [3, 8] | MIC ([3]; LYM broth, pH 4.5) | MIC ([3]; LYM broth, pH 5.5) | MIC ([3]; LYM broth, pH 6.5)
>50 µg/mL: MIC [1, 10] | MIC [1, 11]

Ac-LAKKKKWRKWLKW-NH2 [Peptide W5K09]
50 µg/mL: MIC [1, 10] | MIC ([2]; LYM broth, 2.5 mM MgCl2) | MIC [2, 9] | MIC ([3]; LYM broth, 2.5 mM MgCl2) | MIC [3, 9] | MIC [3, 10]
3.13 µg/mL: MIC ([1]; LYM broth, pH 5.5) | MIC ([1]; LYM broth, pH 6.5)
12.5 µg/mL: MIC ([1]; LYM broth, 1.5 mM MgCl2) | MIC ([1]; LYM broth, 2.5 mM MgCl2) | MIC [1, 8] | MIC ([2]; LYM broth, pH 6.5) | MIC ([3]; LYM broth, pH 5.5) | MIC ([3]; LYM broth, pH 6.5)
1.4: Therapeutic Index (TI) G+ [5]
6.25 µg/mL: MIC [1, 7] | MIC ([1]; LYM broth, 0.5 mM MgCl2) | MIC ([1]; LYM broth, pH 4.5)
25 µg/mL: MIC [1, 9] | MIC [1, 12] | MIC [2, 7] | MIC ([2]; LYM broth, 0.5 mM MgCl2) | MIC ([2]; LYM broth, 1.5 mM MgCl2) | MIC [2, 8] | MIC ([2]; LYM broth, pH 4.5) | MIC ([2]; LYM broth, pH 5.5) | MIC [3, 7] | MIC ([3]; LYM broth, 0.5 mM MgCl2) | MIC ([3]; LYM broth, 1.5 mM MgCl2) | MIC [3, 8] | MIC ([3]; LYM broth, pH 4.5)
2.2: Therapeutic Index (TI) G−/+ [6]
75.8 µg/mL: GM G+ (geometric mean of the MIC values) [5]
50.0 µg/mL: GM G−/+ (geometric mean of the MIC values) ([6]; MH broth)
>50 µg/mL: MIC [1, 11] | MIC [2, 10] | MIC [2, 11] | MIC [2, 12] | MIC [3, 11] | MIC [3, 12]
33.0 µg/mL: GM G− (geometric mean of the MIC values) [4]
3.3: Therapeutic Index (TI) G− [4]
